The series has as its target ATP-dependent translocase ABCB1 (Homo sapiens, UniProt P08183). As to the kind of experiment: TP_TRANSPORTER: transepithelial transport in MDR1-expressing MDCK cells. The series is classed as functional, cell-based. The settings on record: dog.

SMILES strings stand for the structures.

Experimental findings from ChEMBL document CHEMBL2074144, “Pharmacokinetics of erythromycin in rabbit corneas after single-dose infusion: role of P-glycoprotein as a barrier to in vivo ocular drug absorption” (J Pharmacol Exp Ther, 2004) are described below.

ATP-dependent translocase ABCB1, sequence (P08183 whole entry): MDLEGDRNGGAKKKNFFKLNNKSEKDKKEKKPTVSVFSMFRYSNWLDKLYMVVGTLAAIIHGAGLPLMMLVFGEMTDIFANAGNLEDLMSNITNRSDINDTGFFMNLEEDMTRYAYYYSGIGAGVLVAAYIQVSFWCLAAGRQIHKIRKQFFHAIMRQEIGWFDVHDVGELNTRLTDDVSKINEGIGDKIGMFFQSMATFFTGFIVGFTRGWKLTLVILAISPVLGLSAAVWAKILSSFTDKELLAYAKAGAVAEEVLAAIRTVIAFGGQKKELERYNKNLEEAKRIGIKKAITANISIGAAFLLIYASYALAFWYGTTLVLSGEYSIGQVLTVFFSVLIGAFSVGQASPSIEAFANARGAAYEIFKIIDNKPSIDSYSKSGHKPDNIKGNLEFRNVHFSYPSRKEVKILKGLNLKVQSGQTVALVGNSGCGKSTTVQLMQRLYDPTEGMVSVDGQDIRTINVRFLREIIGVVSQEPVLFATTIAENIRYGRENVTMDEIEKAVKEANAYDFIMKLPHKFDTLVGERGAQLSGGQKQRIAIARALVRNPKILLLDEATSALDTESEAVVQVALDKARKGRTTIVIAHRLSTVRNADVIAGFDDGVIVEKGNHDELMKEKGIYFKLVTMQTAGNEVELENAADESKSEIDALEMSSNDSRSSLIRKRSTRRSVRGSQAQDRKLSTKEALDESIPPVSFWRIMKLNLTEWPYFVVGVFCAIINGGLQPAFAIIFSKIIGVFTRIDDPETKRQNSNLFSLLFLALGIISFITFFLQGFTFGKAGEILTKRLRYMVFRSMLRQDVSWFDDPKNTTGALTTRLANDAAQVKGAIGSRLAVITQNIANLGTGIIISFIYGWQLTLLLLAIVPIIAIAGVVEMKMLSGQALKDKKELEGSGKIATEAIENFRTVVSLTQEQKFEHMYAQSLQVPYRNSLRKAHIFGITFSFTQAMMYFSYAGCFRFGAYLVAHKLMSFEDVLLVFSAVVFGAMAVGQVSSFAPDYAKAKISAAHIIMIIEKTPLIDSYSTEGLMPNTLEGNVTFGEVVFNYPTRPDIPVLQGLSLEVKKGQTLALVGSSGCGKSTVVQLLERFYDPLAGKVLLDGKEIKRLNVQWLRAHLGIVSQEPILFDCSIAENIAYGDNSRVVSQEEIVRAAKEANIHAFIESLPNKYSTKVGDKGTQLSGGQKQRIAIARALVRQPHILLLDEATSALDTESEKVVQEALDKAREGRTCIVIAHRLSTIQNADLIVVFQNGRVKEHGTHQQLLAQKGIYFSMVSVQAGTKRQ

As to `CC[C@H]1OC(=O)[C@H](C)[C@@H](O[C@H]2C[C@@](C)(OC)[C@@H](O)[C@H](C)O2)[C@H](C)[C@@H](O[C@@H]2O[C@H](C)C[C@H](N(C)C)[C@H]2O)[C@](C)(OC)C[C@@H](C)C(=O)[C@H](C)[C@@H](O)[C@]1(C)O` [CLARITHROMYCIN], the Activity entry was “substrate [+]”.
